The values that follow are results of earlier work, collected in patent publication US9161911B2, “Gastric retentive pharmaceutical compositions for treatment and prevention of CNS disorders” (priority 2008, dated 2015).

The structures appear in SMILES notation.

As for `NC(Cc1ccc(O)c(O)c1)C(=O)O` (single isomer, unassigned; (-)) [Levodopa, (−)-L-alpha-amino-beta-(3,4-dihydroxybenzene) propanoic acid], the “solubility in aqueous media” value is listed as “poorly soluble” and the solubility in water result is “slightly soluble (aqueous solubility (measured at 20° C.) in the range of 2% to 10% by weight)”.

With `C[C@@](Cc1ccc(O)c(O)c1)(NN)C(=O)O.O` [Carbidopa, (−)-L-alpha-hydrazino-alpha-methyl-beta-(3,4-dihydroxybenzene) propanoic acid monohydrate], the “solubility in aqueous media” value is on record as “poorly soluble” and the solubility in water result is recorded as “slightly soluble (aqueous solubility (measured at 20° C.) in the range of 2% to 10% by weight)”.
